Data published in patent US20220226484A1, “THERAPEUTIC PEPTIDES” (COHBAR, INC., priority 2019, published 2022).

How the values were obtained:
[1] = test system: SH-SY5Y Neuroblastoma Cells; assay: ATP levels (CellTiter-Glo); type: cell-based, human; conditions: staurosporine 1 μM
Experimental: The effect of the peptides on cellular metabolism can be assessed using an assay of ATP levels in cultured cells such as human neuroblastoma cells. Peptides were initially prepared as 10 mM stock in DMSO and used at a final concentration of 10 μM (0.1% DMSO). […] CellTiter-Glo® Assay kit was purchased from Promega. SH-SY5Y human bone marrow neuroblastoma cell line was purchased from American Type Culture Collection (Manassas, Va.) and licensed from Memorial Sloan-Kettering Cancer Center (New York, N.Y.). SH-SY5Y cells were grown in DMEM/F12 medium supplemented with 10% FBS with 100 IU/ml penicillin and 100 μg/ml streptomycin. Cultures were maintained at 37° C. in a humidified atmosphere of 5% CO2/95% air. SH-SY5Y cells were seeded at 30,000 cells per well on 96-well plates. […] ATP levels were determined using a CellTiter-Glo Assay kit (Promega) according to the manufacturer's instructions. Luminescence for each sample well on the plate was measured using a Cytation 3 plate reader (BioTek, Winooski, Vt.). Activity was calculated relative to 0.1% DMSO treated control. The relative standard deviation of the result for the 0.1% DMSO treated control was <5%.

[2] = Cell viability, PrestoBlue Assay; type: cell-based, human; conditions: human; read-out: Cell viability, % of the background corrected DMSO control value
Experimental: The effect of the peptides on cell viability can be assessed in cultured cells using suitable assay of viability such as the PrestoBlue® assay (Thermo Fisher Scientific, Waltham, Mass.). Peptides were initially prepared as 10 mM stock in DMSO and tested at a final concentration of 10 μM (0.1% DMSO). […] PrestoBlue Assay Reagent was purchased from Thermo Fisher Scientific. A172 human brain glioblastoma cell line was purchased from American Type Culture Collection (Manassas, Va.). A172 cells were grown in DMEM supplemented with 10% FBS with 100 IU/ml penicillin and 100 μg/ml streptomycin. Cultures were maintained at 37° C. in a humidified atmosphere of 5% CO2/95% air. A172 cells were seeded at 8,000 cells per well on 96-well plates. […] Cell viability was determined using a PrestoBlue Assay reagent […] according to the manufacturer's instructions. Absorption for each sample well on the plate was measured using a Cytation 3 plate reader at 560 nm and 590 nm (BioTek, Winooski, Vt.). Activity was calculated relative to 0.1% DMSO untreated control. Treatment with 0.1% DMSO alone was used as the cell viability activity control. The relative standard deviation of the DMSO control was <5%.

In the case of `CN[C@@H]1C[C@H]2O[C@@](C)([C@@H]1OC)n1c3ccccc3c3c4c(c5c6ccccc6n2c5c31)C(=O)NC4` [staurosporine, Staurosporine, reference compound], the “ATP levels, % of the 0.1% DMSO treated control value” [1] is reported as < 5% and the viability at 1 µM [2] is reported as < 75%.
